Assay results published in US8952024B2, “Herbicidal pyrimidone derivatives” (E I du Pont de Nemours and Company, priority 2009, dated 2015).

Tests used:
Type in all cases: in vivo
[1] = tested on: ducksalad (Heteranthera limosa); test: Test B flooded paddy test; settings: for Plant response rating, Flood, Ducksalad: 250 g ai/ha, flooded paddy test, visual rating on 0 to 100 scale (0 no effect, 100 complete control) after 13 to 15 days; for Plant response rating, Ducksalad: Flood (flooded paddy test), 62 g ai/ha, scale of 0 to 100 where 0 is no effect and 100 is complete control, 13 to 15 days
Procedure, shortened: (§1)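 2-leaf seedlings; pots flooded 3 cm over soil at treatment; cpd dosed into floodwater, depth kept constant. Greenhouse 13–15 d. Visual rating vs untreated controls, 0 = no effect, 100 = complete control.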

[2] = tested on: umbrella sedge (Cyperus difformis); test: Test B flooded paddy test; settings: for Plant response rating, Flood, Sedge, Umbrella: 250 g ai/ha, flooded paddy test, visual rating on 0 to 100 scale (0 no effect, 100 complete control) after 13 to 15 days; for Plant response rating, Sedge, Umbrella: Flood (flooded paddy test), 62 g ai/ha, scale of 0 to 100 where 0 is no effect and 100 is complete control, 13 to 15 days
Procedure, shortened: as §1

[3] = tested on: barnyardgrass (Echinochloa crus-galli); test: Test B flooded paddy test; settings: for Plant response rating, Flood, Barnyardgrass: 250 g ai/ha, flooded paddy test, visual rating on 0 to 100 scale (0 no effect, 100 complete control) after 13 to 15 days; for Plant response rating, Barnyardgrass: Flood (flooded paddy test), 62 g ai/ha, scale of 0 to 100 where 0 is no effect and 100 is complete control, 13 to 15 days
Procedure, shortened: as §1

rice (Oryza sativa) = test: Test B flooded paddy test; settings: for Plant response rating, Flood, Rice: 250 g ai/ha, flooded paddy test, visual rating on 0 to 100 scale (0 no effect, 100 complete control) after 13 to 15 days; for Plant response rating, Rice: Flood (flooded paddy test), 62 g ai/ha, scale of 0 to 100 where 0 is no effect and 100 is complete control, 13 to 15 days
Procedure, shortened: as §1

[4] = tested on: pigweed (Amaranthus retroflexus); test: Test B pre-/postemergence plant response; settings: for Pigweed plant response rating (0 to 100 scale): 0 is no effect, 13 to 15 days
Procedure, shortened: (§2)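 Visual ratings on a 0–100 scale (100 = complete control) were made versus untreated controls 13–15 days after treatment in a greenhouse. Compounds in surfactant-containing non-phytotoxic solvent were applied preemergence to seeds in loam–sand blend or postemergence to 1- to 4-leaf plants (2–18 cm).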

[5] = tested on: Surinam grass (Brachiaria decumbens); test: Test B pre-/postemergence plant response
Procedure, shortened: as §2

[6] = tested on: lambsquarters (Chenopodium album); test: Test B pre-/postemergence plant response; settings: for Lambsquarters plant response rating (0 to 100 scale): 0 is no effect, 13 to 15 days
Procedure, shortened: as §2

[7] = tested on: woolly cupgrass (Eriochloa villosa); test: Test B pre-/postemergence plant response; settings: for Cupgrass, Woolly plant response rating (0 to 100 scale): 0 is no effect, 13 to 15 days
Procedure, shortened: as §2

[8] = tested on: downy bromegrass (Bromus tectorum); test: Test B pre-/postemergence plant response; settings: for Bromegrass, Downy plant response rating (0 to 100 scale): 0 is no effect, 13 to 15 days
Procedure, shortened: as §2

[9] = tested on: bermudagrass (Cynodon dactylon); test: Test B pre-/postemergence plant response; settings: for Bermudagrass plant response rating (0 to 100 scale): 0 is no effect, 13 to 15 days
Procedure, shortened: as §2

[10] = tested on: wheat (Triticum aestivum); test: Test B pre-/postemergence plant response; settings: for Wheat plant response rating (0 to 100 scale): postemergence, 0 is no effect, 100 is complete control, 13 to 15 days
Procedure, shortened: as §2

[11] = tested on: yellow nutsedge (Cyperus esculentus); test: Test B pre-/postemergence plant response; settings: for Nutsedge, Yellow plant response rating (0 to 100 scale): 0 is no effect, 13 to 15 days
Procedure, shortened: as §2

[12] = 31 g ai/ha, postemergence, scale 0 to 100, 0 is no effect, 100 is complete control
[13] = 62 g ai/ha, postemergence, 100 is complete control
[14] = Postemergence, 125 g ai/ha, scale 0 to 100 (0 no effect, 100 complete control)
[15] = Postemergence, 250 g ai/ha, scale 0 to 100 (0 no effect, 100 complete control)
[16] = Preemergence, 31 g ai/ha, scale 0 to 100 (0 no effect, 100 complete control)
[17] = Preemergence, 62 g ai/ha, scale 0 to 100 (0 no effect, 100 complete control)
[18] = Preemergence, 125 g ai/ha, scale 0 to 100, 0 no effect, 100 complete control
[19] = Preemergence, 250 g ai/ha, 0 to 100 scale

COCCCn1c(-c2cccc(C)c2)ncc(C(=O)C2=C(O)CCCC2=O)c1=O [Compound 118, 5-[(2-hydroxy-6-oxo-1-cyclohexane-1-yl)carbonyl]-3-(3-methoxypropyl)-2-(3-methylphenyl)-4(3H)-pyrimidinone]
0: Plant response rating, Rice (rice (Oryza sativa)) | Plant response rating, Bromegrass, Downy [8, 12]
98: Lambsquarters plant response rating (0 to 100 scale) [6, 13] | Plant response rating, Bermudagrass [9, 14] | Plant response rating, Bermudagrass [9, 15]
65: Plant response rating, Cupgrass, Woolly [7, 12] | Plant response rating, Nutsedge, Yellow [11, 14] | Plant response rating, Nutsedge, Yellow [11, 15]
95: Plant response rating, Cupgrass, Woolly [7, 15] | Bermudagrass plant response rating (0 to 100 scale) [9, 13]
90: Plant response rating, Surinam Grass [5, 15]
45: Nutsedge, Yellow plant response rating (0 to 100 scale) [11, 13]
5: Bromegrass, Downy plant response rating (0 to 100 scale) [8, 13] | Wheat plant response rating (0 to 100 scale) ([10]; 62 g ai/ha) | Plant response rating, Wheat [10, 14]
30: Plant response rating, Bromegrass, Downy [8, 14]
70: Plant response rating, Sedge, Umbrella [2] | Plant response rating, Flood, Barnyardgrass [3] | Cupgrass, Woolly plant response rating (0 to 100 scale) [7, 13]
50: Plant response rating, Barnyardgrass [3]
75: Plant response rating, Surinam Grass [5, 14] | Plant response rating, Cupgrass, Woolly [7, 14] | Plant response rating, Bermudagrass [9, 12]
85: Plant response rating, Flood, Sedge, Umbrella [2] | Plant response rating, Pigweed [4, 12] | Plant response rating, Lambsquarters [6, 12]
15: Plant response rating, Flood, Rice (rice (Oryza sativa))
100: Plant response rating, Flood, Ducksalad [1] | Plant response rating, Ducksalad [1] | Pigweed plant response rating (0 to 100 scale) [4, 13] | Plant response rating, Pigweed [4, 14] | Plant response rating, Pigweed [4, 15] | Plant response rating, Lambsquarters [6, 14] | Plant response rating, Lambsquarters [6, 15]
35: Plant response rating, Bromegrass, Downy [8, 15] | Plant response rating, Nutsedge, Yellow [11, 12]

COCCn1c(-c2cc(F)cc(F)c2)ncc(C(=O)C2=C(O)CCCC2=O)c1=O [Compound 119]
100: Plant response rating, Pigweed [4, 14] | Plant response rating, Pigweed [4, 15] | Plant response rating, Pigweed [4, 18] | Pigweed plant response rating [4, 19] | Plant response rating, Surinam Grass [5, 18] | Surinam Grass plant response rating [5, 19] | Lambsquarters plant response rating (0 to 100 scale) [6, 13] | Plant response rating, Lambsquarters [6, 14] | Plant response rating, Lambsquarters [6, 15] | Plant response rating, Lambsquarters [6, 18] | Lambsquarters plant response rating [6, 19] | Plant response rating, Cupgrass, Woolly [7, 15] | Cupgrass, Woolly plant response rating [7, 19] | Plant response rating, Bermudagrass [9, 16] | Plant response rating, Bermudagrass [9, 17] | Plant response rating, Bermudagrass [9, 18] | Bermudagrass plant response rating ([9]; Preemergence, 250 g ai/ha, 0 to 100 scale, 0 no effect, 100 complete control)
65: Plant response rating, Cupgrass, Woolly [7, 16] | Plant response rating, Nutsedge, Yellow [11, 14]
35: Plant response rating, Flood, Rice (rice (Oryza sativa))
90: Plant response rating, Pigweed [4, 17] | Plant response rating, Surinam Grass [5, 16]
40: Wheat plant response rating (0 to 100 scale) ([10]; 62 g ai/ha)
85: Surinam Grass plant response rating (0 to 100 scale) ([5]; 62 g ai/ha, postemergence, 0 is no effect, 100 is complete control, 13 to 15 days) | Plant response rating, Lambsquarters [6, 12] | Plant response rating, Bromegrass, Downy [8, 15]
95: Plant response rating, Pigweed [4, 12] | Plant response rating, Surinam Grass [5, 14] | Plant response rating, Lambsquarters [6, 16] | Plant response rating, Cupgrass, Woolly [7, 18] | Plant response rating, Nutsedge, Yellow [11, 17]
30: Plant response rating, Ducksalad [1] | Plant response rating, Barnyardgrass [3] | Bromegrass, Downy plant response rating (0 to 100 scale) [8, 13] | Plant response rating, Wheat [10, 18]
60: Plant response rating, Bromegrass, Downy [8, 14] | Plant response rating, Wheat [10, 14]
50: Plant response rating, Flood, Barnyardgrass [3] | Plant response rating, Bromegrass, Downy [8, 17] | Wheat plant response rating [10, 19] | Nutsedge, Yellow plant response rating (0 to 100 scale) [11, 13]
70: Plant response rating, Flood, Ducksalad [1]
98: Pigweed plant response rating (0 to 100 scale) [4, 13] | Plant response rating, Surinam Grass [5, 15] | Plant response rating, Surinam Grass [5, 17] | Plant response rating, Lambsquarters [6, 17] | Cupgrass, Woolly plant response rating (0 to 100 scale) [7, 13] | Plant response rating, Cupgrass, Woolly [7, 14] | Bermudagrass plant response rating (0 to 100 scale) [9, 13] | Plant response rating, Bermudagrass [9, 14] | Plant response rating, Bermudagrass [9, 15] | Plant response rating, Nutsedge, Yellow [11, 18] | Nutsedge, Yellow plant response rating [11, 19]
25: Plant response rating, Sedge, Umbrella [2]
80: Plant response rating, Pigweed [4, 16]
0: Plant response rating, Bromegrass, Downy [8, 16] | Plant response rating, Wheat [10, 16] | Plant response rating, Wheat [10, 17]
75: Plant response rating, Flood, Sedge, Umbrella [2] | Plant response rating, Cupgrass, Woolly [7, 12] | Plant response rating, Cupgrass, Woolly [7, 17] | Plant response rating, Bermudagrass [9, 12] | Plant response rating, Nutsedge, Yellow [11, 15] | Plant response rating, Nutsedge, Yellow [11, 16]
10: Plant response rating, Bromegrass, Downy [8, 12] | Plant response rating, Nutsedge, Yellow [11, 12]
20: Plant response rating, Rice (rice (Oryza sativa))
55: Plant response rating, Bromegrass, Downy [8, 18] | Bromegrass, Downy plant response rating [8, 19]
